Assay results published in the NIST ThermoML archive (doi:10.1021/je8002699).

Experiments:
[1] = refractive index (Na D-line) (dimensionless); xn = mol fraction of the nth substance listed; settings: 101 kPa, Liquid
[2] = xn = mol fraction of the nth substance listed; settings: for mass density / speed of sound / viscosity: 101 kPa, Liquid

CC(=O)CC(C)(C)O [4-hydroxy-4-methylpentan-2-one] + CCc1ccccc1
Settings	mass density, [2] [kg/m3]	refractive index, [1]	speed of sound, [2] [m/s]	surface tension liquid-gas, [2] [mN/m]	viscosity, [2] [mPa·s]
303.15 K, x1 = 0.1814	880.9	1.4864	1322	29.92	1.02
303.15 K, x1 = 0.2621	886.6	1.4813	1316	29.88	1.191
303.15 K, x1 = 0.3445	892.5	1.4753	1311	29.84	1.35
303.15 K, x1 = 0.4219	898	1.4701	1305	29.8	1.511
303.15 K, x1 = 0.5447	906.5	1.4599	1296	29.76	1.752
303.15 K, x1 = 0.6624	914.7	1.4505	1286	29.71	2.001
303.15 K, x1 = 0.7667	922	1.4425	1277	29.62	2.266
303.15 K, x1 = 0.8388	926.5	1.4373	1271	29.58	2.433
303.15 K, x1 = 0.9219	931.5	1.43	1264	29.5	2.66
303.15 K, x1 = 1	936	1.4239	1256	29.44	2.89
313.15 K, x1 = 0.1814	856	1.479	1271	29.04	0.9211
313.15 K, x1 = 0.2621	861.8	1.4741	1265	29.04	1.066
313.15 K, x1 = 0.3445	867.8	1.469	1257	29.03	1.234
313.15 K, x1 = 0.4219	873.3	1.4637	1250	29.03	1.4
313.15 K, x1 = 0.5447	882.2	1.454	1237	29.03	1.501
313.15 K, x1 = 0.6624	890.8	1.4458	1224	29.03	1.688
313.15 K, x1 = 0.7667	897.5	1.4384	1212	29.03	1.911
313.15 K, x1 = 0.8388	902.2	1.4335	1204	29	2.377
313.15 K, x1 = 0.9219	907.6	1.4264	1194	28.95	2.511
313.15 K, x1 = 1	912.1	1.4198	1183	28.92	2.791
323.15 K, x1 = 0.1814	845.9	1.4721	1192	27.97	0.7842
323.15 K, x1 = 0.2621	851.6	1.4675	1186	27.9	0.8814
323.15 K, x1 = 0.3445	857.5	1.4624	1180	27.82	0.9901
323.15 K, x1 = 0.4219	863	1.4518	1175	27.75	1.011
323.15 K, x1 = 0.5447	871.5	1.451	1165	27.64	1.201
323.15 K, x1 = 0.6624	879.9	1.4433	1156	27.53	1.354
323.15 K, x1 = 0.7667	886.6	1.4363	1146	27.44	1.521
323.15 K, x1 = 0.8388	891.3	1.4285	1138	27.35	1.812
323.15 K, x1 = 0.9219	896.9	1.4225	1130	27.24	2.082
323.15 K, x1 = 1	901	1.4151	1121	27.12	2.67

CC(=O)CC(C)(C)O [4-hydroxy-4-methylpentan-2-one] + O=[N+]([O-])c1ccccc1
Settings	mass density, [2] [kg/m3]	refractive index, [1]	speed of sound, [2] [m/s]	surface tension liquid-gas, [2] [mN/m]	viscosity, [2] [mPa·s]
303.15 K, x1 = 0.1248	1163.9	1.5377	1395	39.8	2.022
303.15 K, x1 = 0.2389	1130.2	1.5245	1378	38.7	2.161
303.15 K, x1 = 0.3446	1102.1	1.5113	1363	37.5	2.282
303.15 K, x1 = 0.4921	1062	1.4931	1341	35.9	2.45
303.15 K, x1 = 0.5853	1038	1.4822	1327	34.7	2.562
303.15 K, x1 = 0.6427	1023	1.474	1317	34	2.624
303.15 K, x1 = 0.7532	995.6	1.4601	1298	32.7	2.735
303.15 K, x1 = 0.8226	979.1	1.45	1287	31.7	2.791
303.15 K, x1 = 0.9349	–	1.43	1263	29.5	2.889
303.15 K, x1 = 1	936	1.4239	1256	29.44	2.89
313.15 K, x1 = 0.1248	1157.7	1.5351	1304	37.45	1.752
313.15 K, x1 = 0.2389	1120.9	1.521	1290	36.6	1.931
313.15 K, x1 = 0.3446	1088.8	1.508	1277	35.6	2.137
313.15 K, x1 = 0.4921	1046.3	1.4897	1258	34.3	2.412
313.15 K, x1 = 0.5853	1019.9	1.4782	1244	33.4	2.541
313.15 K, x1 = 0.6427	1004.4	1.4706	1236	32.8	2.661
313.15 K, x1 = 0.7532	975.5	1.4548	1221	31.7	2.741
313.15 K, x1 = 0.8226	957.8	1.4456	1211	31	2.764
313.15 K, x1 = 0.9349	–	1.4261	1190	29.4	2.79
313.15 K, x1 = 1	912	1.4198	1183	28.92	2.791
323.15 K, x1 = 0.1248	1146.5	1.5304	1212	35.8	1.658
323.15 K, x1 = 0.2389	1109.6	1.5268	1201	35	1.843
323.15 K, x1 = 0.3446	1077.5	1.5048	1192	34.3	2.018
323.15 K, x1 = 0.4921	1035	1.486	1178	33.11	2.32
323.15 K, x1 = 0.5853	999.9	1.475	1169	32.3	2.492
323.15 K, x1 = 0.6427	993.1	1.4675	1163	31.8	2.579
323.15 K, x1 = 0.7532	964.3	1.4503	1152	–	2.651
323.15 K, x1 = 0.8226	946.6	1.4412	1144	30.1	2.661
323.15 K, x1 = 0.9349	910	1.4215	1128	28.8	2.67
323.15 K, x1 = 1	901	1.4151	1121	28.12	2.67
